From ChEMBL document CHEMBL1201862, “PubChem BioAssay data set” (2004)
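The compound was tested at five concentrations on cells cultured in 96-well plates, with a 48-hour exposure period. GI50 marks 50% less growth.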 The source made the active and inactive calls. No stated cut-off is given here; in the data, active = GI50 up to about 1.1 µM and inactive = higher.

How the values were obtained:
Assay in all cases: inhibition of tumour cell growth, NCI panel, 48 h
BT-549 = test system: BT-549
CAKI-1 = test system: CAKI-1
COLO 205 = test system: COLO 205
HOP-62 = test system: HOP-62
HOP-92 = test system: HOP-92
IGROV-1 = test system: IGROV-1
KM12 = test system: KM12
LOX IMVI = test system: LOX IMVI
Malme-3M = test system: Malme-3M
NCI-H226 = test system: NCI-H226
OVCAR-3 = test system: OVCAR-3
SF-295 = test system: SF-295
SNB-75 = test system: SNB-75
SW-620 = test system: SW-620
TK-10 = test system: TK-10
UACC-257 = test system: UACC-257
UO-31 = test system: UO-31
RPMI-8226 = test system: RPMI-8226
SK-MEL-2 = test system: SK-MEL-2

SMILES | GI50 (BT-549) | GI50 (CAKI-1) | GI50 (COLO 205) | GI50 (HOP-62) | GI50 (HOP-92) | GI50 (IGROV-1) | GI50 (KM12) | GI50 (LOX IMVI) | GI50 (Malme-3M) | GI50 (NCI-H226) | GI50 (OVCAR-3) | GI50 (SF-295) | GI50 (SNB-75) | GI50 (SW-620) | GI50 (TK-10) | GI50 (UACC-257) | GI50 (UO-31) | GI50 (RPMI-8226) | GI50 (SK-MEL-2)
CC(=O)O[C@H]1CC[C@@]2(C)C(=CC[C@@H]3[C@@H]2CC[C@]2(C)c4nc(Cl)ccc4C[C@@H]32)C1 | 15.2 µM (inactive) | 66.4 µM (inactive) | 39.1 µM (inactive) | 45.4 µM (inactive) | 54.7 µM (inactive) | 89.9 µM (inactive) | 43.3 µM (inactive) | 40.9 µM (inactive) | 61.1 µM (inactive) | > 100 µM (inactive) | 27.9 µM (inactive) | 24.7 µM (inactive) | 33.9 µM (inactive) | 59 µM (inactive) | 54.3 µM (inactive) | 32.9 µM (inactive) | 64.6 µM (inactive) |  | 
Cc1c2cccc-2c(OCCOC(=O)n2ccnc2)cc2c1[nH]c1ccccc12 | 2.89 µM (inactive) | 3.66 µM (inactive) |  | 5.48 µM (inactive) | 1.7 µM (inactive) | 1.77 µM (inactive) | 2.14 µM (inactive) | 1.89 µM (inactive) | 2.79 µM (inactive) | 2.39 µM (inactive) | 1.89 µM (inactive) | 2.96 µM (inactive) | 1.04 µM (active) | 3.08 µM (inactive) | 3.85 µM (inactive) | 2.73 µM (inactive) | 1.84 µM (inactive) | 3.48 µM (inactive) | 1.98 µM (inactive)
Cc1ccc(O)c(-c2cc(-c3ccccc3)nc(/N=C\c3ccccc3)n2)c1 | 0.126 µM (active) |  |  | 18.1 µM (inactive) | 43.7 µM (inactive) | 16.6 µM (inactive) | 17.5 µM (inactive) | 21.8 µM (inactive) | > 100 µM (inactive) | 30.3 µM (inactive) | 23.7 µM (inactive) | 36.1 µM (inactive) | 15.3 µM (inactive) | > 100 µM (inactive) | 97.1 µM (inactive) | > 100 µM (inactive) | 2.94 µM (inactive) |  | 25.8 µM (inactive)
CC1(C)O[C@@H](CP(c2ccccc2)c2ccccc2)[C@H](CP(c2ccccc2)c2ccccc2)O1 | 2.96 µM (inactive) | 21 µM (inactive) | 0.632 µM (active) | 15.1 µM (inactive) | 8 µM (inactive) | 2.33 µM (inactive) | 2.85 µM (inactive) | 1.82 µM (inactive) | 5.83 µM (inactive) | 6.52 µM (inactive) | 0.384 µM (active) | 5.62 µM (inactive) | 6.55 µM (inactive) | 17.2 µM (inactive) | 14.2 µM (inactive) | 6.98 µM (inactive) | > 10 µM (inactive) | 3.72 µM (inactive) | 
CC(C)=C1C(=O)C[C@]2(C)C[C@H]3O[C@]3(C)CC[C@@H]3O[C@@]3(C)CC[C@@H]12 | > 50 µM (inactive) | > 50 µM (inactive) | > 50 µM (inactive) | > 50 µM (inactive) | > 50 µM (inactive) | > 50 µM (inactive) | > 50 µM (inactive) | 17.5 µM (inactive) |  | > 50 µM (inactive) | > 50 µM (inactive) | > 50 µM (inactive) | > 50 µM (inactive) | > 50 µM (inactive) | > 50 µM (inactive) | > 50 µM (inactive) | 30.3 µM (inactive) | > 50 µM (inactive) | > 50 µM (inactive)
COc1cc(COC(=O)N2CCC2C(=O)O)c([N+](=O)[O-])cc1OC (stereo not drawn) | > 100 µM (inactive) |  | > 100 µM (inactive) | > 100 µM (inactive) | > 100 µM (inactive) | > 100 µM (inactive) | > 100 µM (inactive) |  | > 100 µM (inactive) | > 100 µM (inactive) | > 100 µM (inactive) | > 100 µM (inactive) | > 100 µM (inactive) | > 100 µM (inactive) | > 100 µM (inactive) | > 100 µM (inactive) | > 100 µM (inactive) | > 100 µM (inactive) | 
Cn1c2c(c3ccccc31)CC1c3c(c4ccccc4n3C)CC21 (stereo not drawn) | > 100 µM (inactive) | > 100 µM (inactive) | > 100 µM (inactive) | > 100 µM (inactive) | > 100 µM (inactive) | > 100 µM (inactive) | > 100 µM (inactive) | > 100 µM (inactive) | > 100 µM (inactive) | > 100 µM (inactive) | > 100 µM (inactive) | > 100 µM (inactive) | > 100 µM (inactive) | > 100 µM (inactive) | > 100 µM (inactive) | > 100 µM (inactive) | > 100 µM (inactive) | > 100 µM (inactive) | 
CC(C)OC(=O)NCCn1cc(-c2ccccc2)nn1 | > 100 µM (inactive) | > 100 µM (inactive) | > 100 µM (inactive) | > 100 µM (inactive) | > 100 µM (inactive) |  | > 100 µM (inactive) | > 100 µM (inactive) | > 100 µM (inactive) | > 100 µM (inactive) |  | > 100 µM (inactive) | > 100 µM (inactive) |  | > 100 µM (inactive) | > 100 µM (inactive) |  | > 100 µM (inactive) | > 100 µM (inactive)
CCOC(=O)C1CCCCc2sc(N)c(C#N)c21 (stereo not drawn) | > 100 µM (inactive) |  | > 100 µM (inactive) | > 100 µM (inactive) | > 100 µM (inactive) | > 100 µM (inactive) | > 100 µM (inactive) |  | 71.1 µM (inactive) | > 100 µM (inactive) |  |  | > 100 µM (inactive) | > 100 µM (inactive) | > 100 µM (inactive) | > 100 µM (inactive) | > 100 µM (inactive) | > 100 µM (inactive) | > 100 µM (inactive)
O=S1(=O)c2ccccc2C(Nc2ccccc2)N1c1ccccc1 (stereo not drawn) | 58.9 µM (inactive) | > 100 µM (inactive) |  | > 100 µM (inactive) | 38.5 µM (inactive) | 36.9 µM (inactive) | 72.3 µM (inactive) | > 100 µM (inactive) | > 100 µM (inactive) | > 100 µM (inactive) | > 100 µM (inactive) | > 100 µM (inactive) | > 100 µM (inactive) | > 100 µM (inactive) | > 100 µM (inactive) | > 100 µM (inactive) | 68.1 µM (inactive) | > 100 µM (inactive) | 98.6 µM (inactive)
O=C(NCP(=O)(c1ccccc1)c1ccccc1)OCc1ccccc1 | > 100 µM (inactive) | > 100 µM (inactive) | > 100 µM (inactive) | 27.4 µM (inactive) | 40 µM (inactive) | > 100 µM (inactive) | > 100 µM (inactive) | > 100 µM (inactive) | > 100 µM (inactive) | > 100 µM (inactive) | 54.3 µM (inactive) | 58.6 µM (inactive) | 6.65 µM (inactive) | > 100 µM (inactive) | > 100 µM (inactive) |  | > 100 µM (inactive) | > 100 µM (inactive) | > 100 µM (inactive)
O=c1oc2ccc([N+](=O)[O-])cc2cc1Br | > 100 µM (inactive) | > 100 µM (inactive) | > 100 µM (inactive) | 71.6 µM (inactive) | 86.3 µM (inactive) | > 100 µM (inactive) | > 100 µM (inactive) | 61.2 µM (inactive) | > 100 µM (inactive) | > 100 µM (inactive) | > 100 µM (inactive) | > 100 µM (inactive) |  | > 100 µM (inactive) | > 100 µM (inactive) | > 100 µM (inactive) | > 100 µM (inactive) | 53.7 µM (inactive) | > 100 µM (inactive)
COc1ccc(CNc2nc3ccccc3nc2C(=O)O)cc1 | > 100 µM (inactive) | > 100 µM (inactive) | 71.6 µM (inactive) | > 100 µM (inactive) | 70.5 µM (inactive) | > 100 µM (inactive) | 65.6 µM (inactive) | 45.4 µM (inactive) |  | > 100 µM (inactive) | > 100 µM (inactive) | 51.4 µM (inactive) | 93.8 µM (inactive) | > 100 µM (inactive) | > 100 µM (inactive) | > 100 µM (inactive) | 39 µM (inactive) | 21.7 µM (inactive) | > 100 µM (inactive)
CC1(C)CC2=C(Sc3ccccc3N2)C(=O)C1C(=O)C(=O)Nc1cc(Cl)ccc1Cl (stereo not drawn) | > 100 µM (inactive) | > 100 µM (inactive) | > 100 µM (inactive) |  | > 100 µM (inactive) | > 100 µM (inactive) | > 100 µM (inactive) | > 100 µM (inactive) | > 100 µM (inactive) | > 100 µM (inactive) | > 100 µM (inactive) | > 100 µM (inactive) | 38.2 µM (inactive) | > 100 µM (inactive) |  | > 100 µM (inactive) | > 100 µM (inactive) | > 100 µM (inactive) | > 100 µM (inactive)
COC(=O)C(Cc1ccccc1)OC(=O)C(N)CC(=O)O (stereo not drawn) | > 100 µM (inactive) | > 100 µM (inactive) | > 100 µM (inactive) | > 100 µM (inactive) | > 100 µM (inactive) | > 100 µM (inactive) |  |  | > 100 µM (inactive) | > 100 µM (inactive) | > 100 µM (inactive) | > 100 µM (inactive) | < 0.01 µM (active) | > 100 µM (inactive) | > 100 µM (inactive) | 32.4 µM (inactive) | > 100 µM (inactive) | > 100 µM (inactive) | > 100 µM (inactive)
CCC(=O)NCC1CCCN2CCCCC12 (stereo not drawn) | > 100 µM (inactive) | > 100 µM (inactive) | > 100 µM (inactive) |  | > 100 µM (inactive) |  | > 100 µM (inactive) | > 100 µM (inactive) | 44.7 µM (inactive) | > 100 µM (inactive) |  | > 100 µM (inactive) | > 100 µM (inactive) | > 100 µM (inactive) | > 100 µM (inactive) | > 100 µM (inactive) | > 100 µM (inactive) | > 100 µM (inactive) | > 100 µM (inactive)
